# Experimental data: patent publication US20230201221A1, “USE OF TERPENOIDS IN THE TREATMENT OR PREVENTION OF FIBROTIC DISEASES” (ARJIL BIOTECH HOLDING COMPANY LIMITED, priority 2020, published 2023)
# Columns and labels:
# Assay type in all cases: in vivo
# [1] = system: SD rats; test: CCl4-induced chronic liver fibrosis in rat
# Procedure: Blood samples are collected at week 0, 2, 4, 6, and 8. The animals are sacrificed at the end of the 8-week for histopathological examinations. FIGS. 7A, 7B, 7C depict delta weight, liver weight, and liver/body-weight ratio, respectively.
# The level of clinical biochemistry such as aspartate aminotransferase (AST), alanine aminotransferase (ALT), is evaluated to determine the enzymatic activities of the livers of the control groups and the experimental groups (shown in FIGS. 8A-8C).
# [2] = system: C57BL/6 mice; test: Cisplatin-induced renal injury in mice: kidney histopathology (H&E); conditions: extract at 1000 mg/kg; cisplatin-stimulated mice
# Source text: Kidney histopathology The anterior portion of the […] from each mouse is fixed in 10% formaldehyde phosphate buffer, embedded in paraffin, cut into 5 μm sections, and then treated with an hematoxylin and eosin (H&E) stain for histological examination under the light microscopy (Nikon, ECLIPSE, TS100, Tokyo, Japan). Images are captured with a digital camera (NIS-Elements D 2.30, SP4, Build 387) at an original magnification of 400×.
# Seven-to-eight-week-old male C57BL/6 mice are obtained from the BioLASCO Taiwan Co., Ltd. (Taipei, Taiwan). The animals are housed in Plexiglas cages at a constant temperature of 22±1° C. and a relative humidity of 55±5% on a 12 h dark-light cycle for at least 2 weeks before the experiment. Animals are provided food and water ad libitum. All experimental procedures are performed according to the guidelines of the Institutional Animal Ethics Committee, and the protocol is approved by the Committee for the Purpose of Control and Supervision of Experiments on Animals.
# Renal fibrosis is induced via multiple injections of low-dose cisplatin. Intraperitoneal injections of cisplatin (5 mg/kg/injection; P4394, Sigma-Aldrich, St Louis, Mo.) are performed at 0, 1, and 3 weeks, for a total of 3 injections. Mice are sacrificed at 6 weeks after the first dose of cisplatin (n=6). […]
# [3] = system: ICR mice; test: Bleomycin-induced pulmonary fibrosis in mice: lung hydroxyproline content; conditions: extract 1.0 g/kg; AH, BH, DH 50 mg/kg; p<0.001
# Procedure: (§1) Mice were divided into fifth groups with 5 animals per group according to body weight: control group, BLM group, BLM+DEX group (7.5 mg/kg), BLM+ACH dosage group (50 mg/kg), and BLM+ACM dosage group (25 mg/kg), BLM+ACH dosage group (50 mg/kg), and BLM+ACM dosage group (25 mg/kg) BLM+AH dosage group (50 mg/kg), and BLM+AM dosage group (25 mg/kg) BLM+BH dosage group (50 mg/kg), and BLM+BM dosage group (25 mg/kg) BLM+CH dosage group (50 mg/kg), and BLM+CM dosage group (25 mg/kg) BLM+DH dosage group (50 mg/kg), and BLM+DM dosage group (25 mg/kg) BLM+EH dosage group (50 mg/kg), and BLM+EM dosage group (25 mg/kg) BLM. Pulmonary fibrosis (PF) was established in mice via a single intratracheal administration of BLM at 7.5 mg/kg mg/kg body weight. Different doses of samples were intragastrically administered daily for 21 days after BLM injury, and DEX was used as the positive control. Control and model groups received an equal volume of vehicle (0.9% NaCl) using the same schedule and route of administration.
# The contents of hydroxyproline were analyzed in lung tissue following the instruction of hydroxyproline assay kit (Biosource International Inc., Sunnyvale, Calif., USA). The pulmonary tissues of mice were ground and homogenized with 1 ml of 6 mol/L […] solution, hydrolyzed at 95° C. for 5 hours, and the pH value was adjusted to 6.0-6.8. According to the instructions, the corresponding reagents were added to the reaction system and mixed thoroughly and then incubated for 15 minutes at 60° C. After cooling, the supernatants were collected after centrifuging at 3500 rpm for 10 minutes. The absorbance value of the supernatant from the samples was measured at 550 nm by a spectrophotometer and calculated for the contents of hydroxyproline on each group.
# [4] = system: MPO; test: Bleomycin-induced pulmonary fibrosis in mice: lung myeloperoxidase (MPO) assay; conditions: compared with BLM group, p<0.001
# Procedure: as §1
# The pulmonary MPO activity was a reliable index for estimating the infiltration of inflammatory cells in lungs. The lung tissues were homogenized and the MPO levels were detected with the kits according to manufacturer's instruction.
# [5] = system: BALB/c mice; test: Con A (concanavalin A) induced acute hepatitis in BALB/c mice; conditions: mean ± SEM
# Procedure: Male BALB/c mice (7-9 weeks old) were purchased from BioLASCO Taiwan Co., Ltd or National Laboratory Animal Center (NLAC, Taiwan). Animals are housed five per cage with food and water provided ad libitum throughout the experiments. Room temperature is maintained at 23±2° C. with an alternating 12 h light dark cycle. Animals are acclimatized for one week to minimize the effect of stress before the experiments. All experimental protocols involving animals and their care are approved by the Institutional Animal Care and Use Committee (IACUC) in ITRI (ITRI-IACUC-2018-041 and ITRI-IACUC-2018-050; accredited by AAALAC) and are carried out according to the regulations of the Council of Agriculture, Taiwan.
# Con A is dissolved in pyrogen free saline at a concentration of 3 mg/mL and intravenously injected at a dose of 15 mg/kg or 20 mg/kg of body weight to induce hepatitis. […] Blood and liver tissues are collected 24 h after Con A treatment (FIG. 11). Serum are stored at […] until analysis.
# To assess the level of hepatocellular injury after Con A treatment, serum GPT and GOT levels are measured by Fuji Dri-Chem slides (Fuji, Japan). The serum of the same group is pooled for cytokine assay. Cytokine levels are measured by ProcartaPlex™ immunoassays kit according to manufacturer's instructions. Data are presented as mean f SEM. T test is used to analyze the differences between drug and vehicle treated groups. The difference is regarded statistically significant when p value is less than 0.05.
# Liver tissues are fixed in 10% phosphate buffered formaldehyde, embedded in paraffin, and stained with hematoxylin and eosin (H&E) in order to confirm tissue lesions. Tissue lesions are examined microscopically by a veterinary pathologist at BioLASCO Taiwan Co., Ltd. The criteria of severity grading system for all microscopic lesions are graded from 0 to 4 as follows: 0=none; 1=individual cell necrosis; 2=≤30% lobular necrosis; 3=≤60% lobular necrosis; 4=>60% lobular necrosis.
smiles,measurement,setting,value
"C=C1C(=O)O[C@H]2/C=C(\C)CC3C=C(CC/C=C(\C)CC[C@H]12)C(=O)O3 (stereo partly drawn) [AR100-DS1, Ovatodiolide]",serum AST and ALT level,"[1]; 50 mg/kg, W6 and W8, compared with the vehicle group",less AST and ALT increases
same,liver appearance,"[1]; 50 mg/kg, after 8 weeks of CCl4 induction",smooth surface without atrophy and sclerosis
same,overall effect on CCl4-induced liver injury,[1]; 8 weeks of CCl4 induction,potential to partially repair CCl4-induced liver injury
same,necrosis and inflammatory infiltrating cells in the kidney tissue (H&E),[2],significantly improved necrosis and inflammatory infiltrating cells in the kidney tissue
same,hydroxyproline (HP) content in lung tissue,[3],reduced lung HP
same,lung MPO activity,[4],evidently suppressed the MPO activities
same,serum GPT level,"[5]; 50 mg/kg oral, 24 h after 15 mg/kg Con A, vehicle 368±107, p<0.05",109±25 U/L
same,serum GOT level,"[5]; 50 mg/kg oral, 24 h after 15 mg/kg Con A, vehicle 410±56",261±45 U/L
same,liver necrosis histopathological score,"[5]; graded 0 to 4, 24 h after Con A, vehicle 1.4±0.2",0.2±0.2
